Source: patent US20250288543A1, “METHODS OF ENHANCING BENEFICIAL SHORT-CHAIN AND MEDIUM-CHAIN FATTY ACIDS PRODUCTION BY GUT MICROBIOME” (Arizona Board of Regents on Behalf of Arizona State …, priority 2024, published 2025)

Columns and labels:
human colon microbiome = assay: In vitro bioreactors inoculated with human feces: chain elongation of acetate with ethanol or lactate to butyrate and caproate; format: cell-based; details: for Methane concentrations: bioreactor headspace, over 7 days, FIG. 4; for Production of MCFAs: pH 6.5 (descending colon), higher concentrations; for SCFA and MCFA production: varied conditions of the large intestine (pH 5.5 and 6.5), FIGS. 6A-6P
Source text: In microbial chain elongation, acetate, an abundant short-chain fatty acid in the colon, is elongated via reverse β-oxidation using a more reduced compound, such as ethanol or lactate to butyrate, caproate, and caprylate (C8). FIG. 1 depicts known microbial pathways for production of butyrate in the human colon. FIG. 2 depicts a proposed pathway for production of butyrate (and caproate). In vitro bioreactors were setup using feces composited from multiple human donors. Gas composition in the bioreactors' headspace was analyzed for H2, CO2, and CH4 using gas chromatography (GC). The concentrations of volatile fatty acids (VFAs), lactate, ethanol, were measured using high performance liquid chromatography (HPLC). 16S rRNA gene from Bacteria and Archaea was sequenced using the PacBio. The ability of the human colon microbiome to carry out chain elongation reactions was probed in bioreactor experiments. Bioreactors consisted of 120 mL glass serum bottles containing 50 mL of reduced anaerobic mineral medium prepared using the Hungate technique. The medium contained the following stock solutions per liter: 10 mL of salts, 1 mL of trace element A, 1 mL of trace element B, and 1 mL of vitamin mix. Sodium sulfide nonahydrate (0.2 mM) and L-cysteine (0.4 mM) were used as reducing agents. The medium was buffered with 15 mM 4-(2-hydroxyethyl)-1-piperazineethanesulfonic acid (HEPES) and 15 mM sodium bicarbonate. The medium pH was adjusted to 5.5 or 6.5 using a 10 N NaOH solution. The medium was bottled using a gas composition of 20% CO2 and 80% N2. The experimental conditions and controls are shown in Table 1 and were tested in triplicate. The tested concentrations of short-chain fatty acids (60 mM acetate, 20 mM propionate, 20 mM butyrate) are within the typical range detected in the human colon. For ethanol and lactate (electron donors in chain elongation), we tested 4 mM, a low but physiological relevant concentration and a high concentration of 40 mM. The high concentration of ethanol (40 mM) was selected based on existing chain elongation literature (Yin et al. 2017; Coma et al. 2016; […], and Buisman 2008; Robles et al. 2021; Joshi et al. 2021) and was strategically employed to enhance the activity of putative chain-elongating microorganisms. […] The slurry was prepared by mixing one-part reduced anaerobic mineral medium and one-part feces from a composite sample containing fecal samples from multiple healthy donors as described in the Supporting Information. In one condition, the fecal slurry was filtered through a 200 μm filter before inoculation. In condition with 60 mM acetate+40 mM ethanol+MCE culture at pH 6.5, a chain elongation culture derived from soil (Joshi et al. 2021) was also inoculated. The pH was measured using 0.5 mL samples using an OrionTM Versa Star ProTM Benchtop pH Meter (Thermo Scientific, Waltham, MA, USA) equipped with an Orion economy series pH electrode. The pH meter was calibrated with Orion pH 4.01, 7.00, and 10.01 standard solutions. Samples for HPLC consisted of 0.5 mL of supernatant from bioreactors filtered through a 0.2 μm PDVF filter (MDI Membrane Technologies, Harrisburg, PA, USA). The concentrations of formate, acetate, propionate, isobutyrate, butyrate, isovalerate, valerate, isocaproate, caproate, heptanoate, lactate, ethanol, butanol, and hexanol were determined using a high-performance liquid chromatograph (HPLC, Agilent, Santa Clara, CA, USA) with a photodiode array detector (DAD) set at 210 nm and a refractive index detector (RID). The HPLC was fitted with an Aminex HPX-87H column 300×7.8 mm (Bio-Rad Laboratories, Hercules, CA, USA) and operated with an eluent of 2.5 mM H2SO4 at a flow rate of 0.6 mL per minute for a duration of 80 minutes. The oven temperature was constant at […]. The calibration range for fatty acids was 0.25-10 mM, and the calibration range for the alcohols was 2.5-50 mM. […]

[1] = mechanism related to vagal afferent; cited from earlier work
[2] = rat model of diabetes, hexanoate as sole FA source; cited from earlier work
[3] = physiologically relevant concentration of ethanol and lactate, FIGS. 5A and 5B

Compound | Methane concentrations (human colon microbiome) | Production of MCFAs (human colon microbiome) | Butyrate production via chain elongation (human colon microbiome; [3]) | SCFA and MCFA production (human colon microbiome) | Efficacy in suppressing food intake (rank order) [1] | further results
CC(O)C(=O)O (stereo not shown) [lactate] | higher at higher concentrations | significant increase | occurred | successfully increases |  | Metabolites produced with lactate as the electron donor (human colon microbiome; acetate + lactate, FIG. 3B): metabolic shift was observed towards propionate and butyrate production; Production of butyrate and other SCFAs via chain elongation (human colon microbiome; pH 5.5 (ascending colon)): a better substrate
CCO [ethanol] | higher at higher concentrations | significant increase | occurred | successfully increases |  | Conversion of acetate and ethanol to butyrate and caproate via chain elongation, time of occurrence (human colon microbiome; acetate + ethanol, fecal bioreactors, FIGS. 3A and 3B): within one day; Chain elongation activity with filtered feces (human colon microbiome; acetate + ethanol, feces filtered to remove larger particles, FIGS. 3C and 3D): did not affect the chain elongation activity; Caproate production (human colon microbiome; [3]): caproate was produced only when ethanol was the electron donor
CC(=O)O [acetate] |  |  |  |  | butyrate>propionate>acetate | 
CCC(=O)O [propionate] |  |  |  |  | butyrate>propionate>acetate | 
CCCCCC(=O)O [caproic, caproic acid] |  |  |  |  |  | Contractile function of hearts perfused with glucose alone [2]: normalized contractile function
